The record followed here is US20080039528A1, “Zinc finger ejectors and methods of use thereof” (KANSAS STATE UNIVERSITY RESEARCH FOUNDATION, priority 2004, published 2008).

One series concerns P. falciparum D6. Put plainly: Inhibition of the growth of P. falciparum D6 clone ([3H]-hypoxanthine uptake). Type of series: cell-based, Plasmodium falciparum. The note with it: for inhibitory activities (in words): P. falciparum D6 and W2 and L. donovani parasites, summary statement; for IC50: read-out: D6, IC50; for IC90: read-out: D6, IC90. The method, then: (§1) Inhibition of the growth of P. falciparum. A reported method for the inhibition of the growth of P. falciparum was followed. The incubation period of the parasites was 66 h and the starting parasitemia was 0.2% with a 1% hematocrit. The medium used was RPMI-1640 culture medium with no folate or p-aminobenzoic acid and 10% normal heat-inactivated human plasma, and P. falciparum D6 and W2 clones were used. D6 is a clone from the Sierra I/UNC isolates and is susceptible to chloroquine and pyrimethamine but has reduced susceptibilities to mefloquine and halofantrine. W2 is a clone of the Indochina I isolate and is resistant to chloroquine and pyrimethamine but susceptible to mefloquine. […] The diluted compounds were transferred ([…]) to test plates, 200 µL of parasitized erythrocytes (0.2% parasitemia and 1% hematocrit) was added, and was incubated at 37° C. in a controlled environment of 5% CO2, 5% O2, and 90% N2. After 42 h, 25 µL of [^3H]-hypoxanthine was added and the plates were incubated for an additional 24 h. The plates were then frozen at −70° C. to lyse the red cells and later thawed and harvested onto glass fiber filter mats by using a 96-well cell harvester. The filter mats were counted in a scintillation counter and the data were downloaded with the custom, automated analysis software developed by WRAIR. For each compound, the concentration-response profile was determined and 50% inhibitory concentrations (IC50) were determined by using a nonlinear, logistic dose-response analysis program.

The subject of another series is P. falciparum W2. The experiment in a line: Inhibition of the growth of P. falciparum W2 clone ([3H]-hypoxanthine uptake). In kind it is cell-based, Plasmodium falciparum. The note with it: for IC50: read-out: W2, IC50; for IC90: read-out: W2, IC90. The method, then: as §1
For series [1], the system named is L. donovani axenic amastigote-like parasites. Put plainly: Inhibition of the growth of L. donovani axenic amastigotes (3-day CellTiter 96 assay). Type of series: cell-based, Leishmania donovani. The conditions noted are these: 3-day assay. The method, then:
Inhibition of the growth of L. donovani parasites. A reported method for the inhibition of the growth of L. donovani parasites was followed. L. donovani axenic amastigotes were maintained in modified RPMI medium as previously described. Inhibition of growth by the compounds was measured in a 3-day assay using the tetrazolium dye-based CellTiter 96 Aqueous Non-Radioactive Cell Proliferation Assay Kit (Promega, Madison, Wis., USA) as previously described. The known anti-leishmaniasis drug, pentamidine, was used as a control.

A further series is described as follows: Solubility (qualitative). Type of series: physicochemical.
Setting [2] is: Plasmodium falciparum, D6, 66 h, P. falciparum D6 intraerythrocytic forms, 66 h incubation.
The mark [3] stands for this setting: Plasmodium falciparum, W2, 66 h, P. falciparum W2 intraerythrocytic forms, 66 h incubation.
Setting [4] is: P. falciparum D6 intraerythrocytic forms, 66 h incubation.
The mark [5] stands for this setting: P. falciparum W2 intraerythrocytic forms, 66 h incubation.
[6] abbreviates: Plasmodium falciparum, P. falciparum W2 intraerythrocytic forms, 66 h incubation.
The mark [7] stands for this setting: Plasmodium falciparum, D6, 66 h.
[8] abbreviates: Plasmodium falciparum, W2, 66 h.

Where two headings read alike, the source gives them in different places.

On to `O=C(O)c1ccc(OCCCCCOc2ccc(C(=O)O)cc2)cc1` [Biscarboxylic acid 6, 1,5-Bis-[4-(hydroxycarbonyl)phenoxy]pentane], for which the “inhibitory activities (in words)” value in the series on P. falciparum D6 was “do not show inhibitory activities”. The IC50 in the series on P. falciparum D6 (setting [2]) and in the series on P. falciparum W2 (setting [3]) was above 60000 nM in each case.
In the case of `O=C(O)c1ccc(OC/C=C/COc2ccc(C(=O)O)cc2)cc1` [Biscarboxylic acid 8, trans-1,4-Bis-[4-(hydroxycarbonyl)phenoxy]-2-butene], in the series with P. falciparum D6, the “inhibitory activities (in words)” value is on record as “do not show inhibitory activities”. For the same compound, the IC50 in the series with P. falciparum D6 (setting [2]) and with P. falciparum W2 (setting [3]) was above 60000 nM each time.
Take `O=C(O)c1ccc(OCCOCCOc2ccc(C(=O)O)cc2)cc1` [Biscarboxylic acid 10, 2,2′-Bis-[(4-hydroxycarbonyl)phenoxy]ethyl ether]: in the series with P. falciparum D6, the “inhibitory activities (in words)” value is reported as “do not show inhibitory activities”. The results for the IC50 (in the series on P. falciparum D6 (setting [4]); in the series with P. falciparum W2 (setting [5]); in series [1]) were above 38000 nM, above 38000 nM and above 100000 nM, respectively.
`COC(=O)c1ccc(OCCCCCOc2ccc(C(=O)OC)cc2)cc1` [Bisester 5, 1,5-Bis-(4-methoxycarbonylphenoxy)pentane]: in the series on P. falciparum D6, the “inhibitory activities (in words)” value is given as “do not show inhibitory activities”. The concentration for half-maximal inhibition (IC50) in the series with P. falciparum D6 (setting [2]) and in the series with P. falciparum W2 (setting [3]) was above 60000 nM each time.
As for `COC(=O)c1ccc(OC/C=C/COc2ccc(C(=O)OC)cc2)cc1` [Bisester 7, trans-1,4-Bis-(4-methoxycarbonylphenoxy)-2-butene], the “inhibitory activities (in words)” value in the series with P. falciparum D6 is given as “do not show inhibitory activities”. The IC50 in the series with P. falciparum D6 (setting [2]) and with P. falciparum W2 (setting [3]) was above 60000 nM in each case.
On to `COC(=O)c1ccc(OCCOCCOc2ccc(C(=O)OC)cc2)cc1` [Bisester 9, 2,2′-Bis-(4-methoxycarbonylphenoxy)ethyl ether], for which the “inhibitory activities (in words)” value with P. falciparum D6 was “do not show inhibitory activities”. For the same compound, the figures for the IC50 (in the series on P. falciparum D6 (setting [4]); with P. falciparum W2 (setting [5]); in series [1]) were above 60000 nM, above 60000 nM and above 100000 nM, respectively.
Take `O=C(NO)c1ccc(OCCCCCOc2ccc(C(=O)NO)cc2)cc1` [Bishydroxamic acid 1, 1,5-Bis-[4-(hydroxyaminocarbonyl)phenoxy]pentane]: in the series on P. falciparum D6 (setting [4]), the IC50 was found to be 2200 nM and the IC90 was determined as 6200 nM. The IC50 with P. falciparum W2 (setting [5]) is 3200 nM.
As for `O=C(NO)c1ccc(OC/C=C/COc2ccc(C(=O)NO)cc2)cc1` [Bishydroxamic acid 2, trans-1,4-Bis[4-(hydroxyaminocarbonyl)phenoxy]-2-butene], the IC50 in the series with P. falciparum D6 (setting [2]) was 690 nM; in the series with P. falciparum W2 (setting [3]) it was 1050 nM. Moreover, the IC90 was determined as 1800 nM in the series with P. falciparum D6 (setting [2]) and 2570 nM in the series on P. falciparum W2 (setting [6]).
Consider `O=C(NO)c1ccc(OCCOCCOc2ccc(C(=O)NO)cc2)cc1` [Bishydroxamic acid 3, 2,2′-Bis-[(4-hydroxyaminocarbonyl)phenoxy]ethyl ether], for which the IC50 in the series on P. falciparum D6 (setting [4]) amounted to 240 nM; in the series on P. falciparum W2 (setting [5]), 350 nM; in series [1], 18500 ± 6000 nM. The IC90 was found to be 470 nM with P. falciparum D6 (setting [4]) and 600 nM with P. falciparum W2 (setting [5]). Besides, the “solubility in DMSO” value in the series “Solubility (qualitative)” (DMSO) is “soluble in DMSO”. In “Solubility (qualitative)”, the solubility in water result is reported as “only slightly soluble in water”.
As to `O=C([N-]O)c1ccc(OCCCCCOc2ccc(C(=O)[N-]O)cc2)cc1.[Na+].[Na+]` [Bishydroxamic acid sodium salt 11, 1,5-Bis-[4-(hydroxy-sodio-aminocarbonyl)phenoxy]pentane], in the series on P. falciparum D6 (setting [4]), the IC50 came to 1000 nM and the IC90 was 2000 nM. The IC50 with P. falciparum W2 (setting [5]) stood at 1090 nM. Also, the solubility in water entry in the series “Solubility (qualitative)” was “soluble in water”.
For the compound `O=C([N-]O)c1ccc(OCCOCCOc2ccc(C(=O)[N-]O)cc2)cc1.[Na+].[Na+]` [Bishydroxamic acid sodium salt 12, 2,2′-Bis-[(4-hydroxy-sodio-aminocarbonyl)phenoxy]ethyl ether], the IC50 in the series with P. falciparum D6 (setting [4]) came out at 260 nM; in the series with P. falciparum W2 (setting [5]), 360 nM; in series [1], 37400 ± 14000 nM. Moreover, the figures for the IC90 with P. falciparum D6 (setting [4]) and in the series with P. falciparum W2 (setting [5]) were 520 nM and 600 nM, respectively. Further, in the series “Solubility (qualitative)”, the solubility in water entry is recorded as “soluble in water”.
As for `CCN(CC)CCCC(C)Nc1ccnc2cc(Cl)ccc12` (centres unmarked) [Chloroquine, reference compound], in the series on P. falciparum D6 (setting [7]), the IC50 came to 13 nM and the IC90 was 14 nM. In the series with P. falciparum W2 (setting [8]), the IC50 was determined as 450 nM and the IC90 was determined as 650 nM.
Take `OC(c1cc(C(F)(F)F)nc2c(C(F)(F)F)cccc12)C1CCCCN1` (centres unmarked) [Mefloquine, reference compound]: the IC50 in the series on P. falciparum D6 (setting [2]) was 13 nM; with P. falciparum W2 (Plasmodium falciparum, W2, P. falciparum W2, value in nM), 8 nM. Further, the IC90 with P. falciparum D6 (setting [2]) was 240 nM; with P. falciparum W2 (setting [6]), 15 nM.
In series [1] (Leishmania donovani, 72 h), `N=C(N)c1ccc(OCCCCCOc2ccc(C(=N)N)cc2)cc1` [Pentamidine, reference compound] displayed an IC50 of 1190 ± 120 nM.
